Columns and labels:
EHMT1 = biological target: T1, EHMT1 (Homo sapiens, UniProt Q9H9B1); test: EHMT1 PEP (EHMT1 peptide enzyme assay); type: biochemical; conditions: peptide substrate enzyme assay
T1 sequence (Q9H9B1 1-1298): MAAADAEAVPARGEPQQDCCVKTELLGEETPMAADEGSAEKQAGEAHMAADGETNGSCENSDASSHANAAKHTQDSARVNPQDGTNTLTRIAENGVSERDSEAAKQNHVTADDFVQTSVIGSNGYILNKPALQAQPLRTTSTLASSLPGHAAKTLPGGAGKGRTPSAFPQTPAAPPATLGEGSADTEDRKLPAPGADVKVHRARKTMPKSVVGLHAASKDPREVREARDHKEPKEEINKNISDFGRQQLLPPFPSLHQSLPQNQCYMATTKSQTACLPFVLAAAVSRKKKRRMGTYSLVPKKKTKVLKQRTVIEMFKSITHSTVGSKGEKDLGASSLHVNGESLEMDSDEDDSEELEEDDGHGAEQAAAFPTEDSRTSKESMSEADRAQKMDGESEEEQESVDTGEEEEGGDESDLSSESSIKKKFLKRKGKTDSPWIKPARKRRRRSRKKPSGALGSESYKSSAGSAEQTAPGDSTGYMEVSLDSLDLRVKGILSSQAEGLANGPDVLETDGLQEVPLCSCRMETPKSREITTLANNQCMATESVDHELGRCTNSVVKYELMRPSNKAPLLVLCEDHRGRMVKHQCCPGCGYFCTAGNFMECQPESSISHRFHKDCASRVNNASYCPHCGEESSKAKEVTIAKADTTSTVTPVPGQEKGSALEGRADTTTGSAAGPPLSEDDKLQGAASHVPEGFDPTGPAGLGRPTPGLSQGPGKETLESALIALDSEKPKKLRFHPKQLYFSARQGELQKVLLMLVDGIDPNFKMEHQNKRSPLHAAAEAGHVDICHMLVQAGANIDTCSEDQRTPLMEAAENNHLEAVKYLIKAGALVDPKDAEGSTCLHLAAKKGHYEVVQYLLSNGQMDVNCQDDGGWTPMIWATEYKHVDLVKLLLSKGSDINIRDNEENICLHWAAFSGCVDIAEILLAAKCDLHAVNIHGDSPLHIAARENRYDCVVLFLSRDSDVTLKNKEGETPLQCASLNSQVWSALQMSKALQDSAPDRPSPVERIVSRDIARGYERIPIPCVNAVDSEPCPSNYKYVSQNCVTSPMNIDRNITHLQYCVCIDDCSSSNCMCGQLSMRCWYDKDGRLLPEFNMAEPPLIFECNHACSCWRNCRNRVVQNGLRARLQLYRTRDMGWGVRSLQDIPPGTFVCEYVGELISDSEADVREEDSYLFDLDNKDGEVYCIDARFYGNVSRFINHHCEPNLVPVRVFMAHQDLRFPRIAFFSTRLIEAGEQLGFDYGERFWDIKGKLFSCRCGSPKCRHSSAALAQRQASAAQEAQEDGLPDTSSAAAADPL

[1] = biological target: T2, recombinant purified human EHMT2 913-1193 (Homo sapiens, UniProt Q96KQ7); test: EHMT2 enzyme assay on histone peptide substrate (3H-SAM Flashplate); type: biochemical; conditions: read-out: EHMT2 PEP (IC50 μM)
T2 construct: Recombinant purified human EHMT2 913-1193 (55 μM) synthesized by Viva was used for all experiments; purchased Viva
T2 sequence (Q96KQ7 913-1193): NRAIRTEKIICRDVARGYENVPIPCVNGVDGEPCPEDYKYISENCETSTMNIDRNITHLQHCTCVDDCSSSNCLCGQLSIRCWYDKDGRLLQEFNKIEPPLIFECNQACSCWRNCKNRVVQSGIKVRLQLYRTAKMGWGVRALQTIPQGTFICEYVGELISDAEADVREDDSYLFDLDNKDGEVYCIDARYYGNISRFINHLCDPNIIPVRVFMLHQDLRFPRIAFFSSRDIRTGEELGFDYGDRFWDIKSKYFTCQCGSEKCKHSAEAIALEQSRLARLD
Procedure: Recombinant purified human EHMT2 913-1193 (55 μM) synthesized by Viva was used for all experiments. Biotinylated histone peptides were synthesized by Biopeptide and HPLC-purified to >95% purity. Streptavidin Flashplates and seals were purchased from PerkinElmer and 384 Well V-bottom Polypropylene Plates were from Greiner. ^3H-labeled S-adenosylmethionine (3H-SAM) was obtained from American Radiolabeled Chemicals with a specific activity of 80 Ci/mmol. Unlabeled SAM and S-adenosylhomocysteine (SAH) were obtained from American Radiolabeled Chemicals and Sigma-Aldrich respectively. Flashplates were washed in a Biotek ELx-405 with 0.1% Tween. 384-well Flashplates and 96-well filter binding plates were read on a TopCount microplate reader (PerkinElmer). Compound serial dilutions were performed on a Freedom EVO (Tecan) and spotted into assay plates using a Thermo Scientific Matrix PlateMate (Thermo Scientific). Reagent cocktails were added by Multidrop Combi (Thermo Scientific).
General Procedure for EHMT2 Enzyme Assay on Histone Peptide Substrate.
10-point curves of test compounds were made on a Freedom EVO (Tecan) using serial 3-fold dilutions in DMSO, beginning at 2.5 mM (final top concentration of compound was 50 μM and the DMSO was 2%). A 1 μL aliquot of the inhibitor dilution series was spotted in a polypropylene 384-well V-bottom plate (Greiner) using a Thermo Scientific Matrix PlateMate (Thermo Scientific). The 100% inhibition control consisted of 1 mM final concentration of the product inhibitor S-adenosylhomocysteine (SAH, Sigma-Aldrich). Compounds were incubated for 30 minutes with 40 μL per well of 0.031 nM EHMT2 (recombinant purified human EHMT2 913-1193, Viva) in 1× assay buffer (20 mM Bicine [pH 7.5], 0.002% Tween 20, 0.005% Bovine Skin Gelatin and 1 mM TCEP). 10 μL per well of substrate mix comprising assay buffer, ^3H-SAM (3H-labeled S-adenosylmethionine, American Radiolabeled Chemicals, specific activity of 80 Ci/mmol), unlabeled SAM (American Radiolabeled Chemicals), and peptide representing histone H3 residues 1-15 containing C-terminal biotin (appended to a C-terminal amide-capped lysine, synthesized by Biopeptide and HPLC-purified to greater than 95% purity) were added to initiate the reaction (both substrates were present in the final reaction mixture at their respective Km values, an assay format referred to as “balanced conditions”). Reactions were incubated for 60 minutes at room temperature and quenched with 10 μL per well of 400 μM unlabeled SAM, then transferred to a 384-well streptavidin Flashplate (PerkinElmer) and washed in a Biotek ELx-405 well washer with 0.1% Tween after 60 minutes. 384-well Flashplates were read on a TopCount microplate reader (PerkinElmer).
IC50 curves were generated using triplicate wells per concentration of compound. The IC50 is the concentration of compound at which measured methylation is inhibited by 50% as interpolated from the dose response curves. IC50 values were calculated using a non-linear regression (variable slope-four parameter fit model) with by the following formula
where Top is fixed at 100% and Bottom is fixed to 0%, [I]=concentration of inhibitor, IC50=half maximal inhibitory concentration and n=Hill Slope.

SMILES | IC50 (EHMT1) [µM] | IC50 [1] [µM]
CNc1cc(C)nc(Nc2ccc(C)c(C(=O)Nc3cc(C#N)ccn3)c2)n1 [Compound 303] | – | 1 to 10
CNc1cc(C)nc(Nc2ccc(Cl)c(C(=O)Nc3ncco3)c2)n1 [Compound 249] | 0.1 to 1 | –

Second part, the compound after the results:

IC50 (EHMT1) [µM] | IC50 [1] [µM] | SMILES
< 0.1 | < 0.1 | CNc1cc(C)nc(Nc2ccc(OC)c(-n3cc([C@@H]4CCCN4)cn3)c2)n1 [Compound 333]
< 0.1 | < 0.1 | CNCc1cnn(-c2cc(Nc3nc(C)cc(NC)n3)ccc2C#N)c1 [Compound 332]
< 0.1 | < 0.1 | CNc1cc(C)nc(Nc2ccc(OC)c(-n3cc([C@H]4CCCN4)cn3)c2)n1 [Compound 334]
